Assay [1] has as its system CD3/CD28 (TransAct) activated PBMCs. As to the kind of experiment: PBMC cytokine release by Cytometric BeadArray, Inhibition format (peptide with anti-CD3/CD28 T-cell activator). Format: cell-based, human. Details: key to Inhibition by Analyte: IL-1b / Inhibition by Analyte: IL-2 / Inhibition by Analyte: TNF / Inhibition by Analyte: IP-10 / Inhibition by Analyte: IL-10: X = a hit with significant activation or inhibition of relevant cytokine release. As for the experimental part:
(§1) Peripheral Blood Mononuclear Cells were seeded+/−the T-cell activator […] and +/−peptides for 24-48 hours. Cytokines were measured from the supernatant after incubation by CBA Cytometer.
(§2) Thawing PBMCs: PBMCs were thawed by pre-warming TexMACS media (Miltenyi Biotech) in 20 ml aliquots-1-50 ml conical per donor. After the media was warmed to 37° C., cells were removed from liquid nitrogen and brought to the tissue culture hood. For each donor, 1 ml of media from the warmed aliquot was added to the frozen vial and mixed up and down. The media plus thawed cells were then added back to the 50 ml conical. This was repeated until all the cells were thawed and added to the 50 ml tube. Continue with other donors if used. Spin cells for 5 min at 400×g. Supernatant was aspirated and cells resuspended at ˜10*10^6 cells/ml (see vial for cell number).
(§3) PBMC Plating: Frozen PBMCs from normal, healthy, human volunteers (StemCell Technologies) were thawed and plated at 250,000 cells/well. After PBMCs were thawed and resuspended at […], cells were then counted (Countess III, Thermo Scientific) and adjusted based on counts to […]. Take the number of PBMCs determined by number of wells for the experiment, for example, 10 wells would need 2.5*10^6 cells total or 0.250 ml. The cells needed for the experiment are then transferred to another conical tube. Warmed TexMACS media is added so that the final concentration is 250,000 cells/190 ul media, for example, 10 wells would need 1.9 ml (190 ul×10 wells) of media total minus 0.250 ml of cells (1.9 ml-0.250 ml) or 1.65 ml of media added to the 0.250 ml of cells. Add 190 ul of cells plus media to the 96 well U-bottom plate. Place in incubator until dilutions are made and ready.
(§4) Peptide Dilutions: Ideally, all peptides should be at a starting concentration of at least 10 mM, especially for those in DMSO (ATCC) to reach a final concentration of 1 uM (H2O) or 0.5 uM (DMSO). Dilutions of all test articles should be made at 20× the final concentration, for example, a final concentration of 1 uM peptide would need to be made at 20 uM.
(§5) Reagent Dilution: Dilutions are made in TexMACS media, enough for 10 ul/well in triplicate (30 ul of a 20×). Activator—CD3/CD28 (TransAct; Miltenyi Biotech) or cytokine will be at 21× and added after the 45-minute incubation with peptides. Be sure to include relevant controls—Positive: TransAct+Cells, Negative: Vehicle+Cells. Dilutions should also be made in a ultra-low binding plate (Corning).
(§6) Assay Procedure: Peptide Treatment: Start assay by thawing the cells and plating in a 96 well, U-bottom tissue culture plate (Corning) as described above. Cell plates are placed in a tissue culture incubator (5% CO2, 37° C.). While cells are in the incubator, start making dilutions (optimally 1 hr or less) as described above. Cell plates are removed from the incubator and 10 ul of the 20× dilutions are added to the relevant wells. After the addition of inhibitors, cell plates are placed in the tissue culture incubator for 45 minutes. The plates are removed from the incubator and 10 ul of 21× TransAct is added to the relevant wells*. Plates are then returned to the incubator and incubated for 24 hours. After 24 hours, plates are spun for 5 minutes at 400×g.
(§7) * Activation: This assay can be run in two different formats—Activation and Inhibition. The procedure is the same except no TransAct is needed in the peptide wells for Activation. TransAct is only needed in the control wells. The purpose of this procedure is to determine the possible response from peptides alone.
(§8) Cytometric BeadArray (CBA): After the spin, supernatants (˜150 ul) are transferred to a new, ultra-low binding U-bottom plate. Supernatants are then frozen at −20° C. until thawed for CBA (BD) to determine levels of human IL-2, TNFα, IL-1b, IP-10, IL-10, and IFNg. CBA was run according to the manufacturers protocol.

For assay [2], the system named is Peripheral Blood Mononuclear Cells. As to the kind of experiment: PBMC cytokine release by Cytometric BeadArray, Activation format (peptide applied to PBMCs alone). It counts as cell-based, human. Details: key: X = a hit with significant activation or inhibition of relevant cytokine release. Particulars: 24 hours, supernatant CBA. As for the experimental part: as §1, §2, §3, §4, §5, §6, §7, §8

[3] abbreviates: peptide applied with anti-CD3/CD28 T-cell activator, 24 hours, supernatant CBA.

With “SEQ ID NO: 1184: target protein of the Sequence Listing, synthesized peptide (LEMEGGCSPPIPHAGHRWKCQTVRVHA; listed as Homo sapiens)”, in assay [1] (setting [3]), the “Inhibition by Analyte: IL-1b” value is reported as “X”, the “Inhibition by Analyte: IL-2” value is “X”, the “Inhibition by Analyte: IP-10” value was “X” and the “Inhibition by Analyte: TNF” value is “X”.

Regarding “SEQ ID NO: 3462: target protein of the Sequence Listing, secreted peptide (METSCSLWVSSELFCRSVKVFFCLLALHLSALPHSSWTQDKNLGLAGMVELK; listed as Homo sapiens)”, the “Activation by Analyte: IP-10” value in assay [2] was “X”.

Turning to “SEQ ID NO: 3585: target protein, anti-inflammatory cytokine modulator, secreted peptide (VAEPRRGHLKAALASLGGAAPAAATNGSPPLFK; listed as Homo sapiens)”, the “release of TNF-alpha from activated PBMCs” value in assay [1] (CD3/CD28 (TransAct) activated PBMCs, FIG. 7) is “significantly blocks”. Besides, the “release of IL-1b from activated PBMCs” value in assay [1] (CD3/CD28 (TransAct) activated PBMCs, FIG. 8) is listed as “does not block”. Besides, in assay [1] (setting [3]), the “Inhibition by Analyte: IL-1b” value was “X”, the “Inhibition by Analyte: IL-2” value is listed as “X” and the “Inhibition by Analyte: TNF” value was “X”.

For “SEQ ID NO: 4174: target protein of the Sequence Listing, secreted peptide (MRSPLSASALLLWSSSVARAFSSPSLLMAVPSPTCSRY; listed as Homo sapiens)”, in assay [1] (setting [3]), the “Inhibition by Analyte: IL-1b” value is reported as “X”, the “Inhibition by Analyte: IL-10” value is “X”, the “Inhibition by Analyte: IP-10” value is given as “X” and the “Inhibition by Analyte: TNF” value is “X”.

“SEQ ID NO: 4615: target protein of the Sequence Listing, secreted peptide (MTAFGLGIPTFLVMQPSGSQPRFPALTQNGVALVRTPLTSVYLRVRICRVLGPRSQPS; listed as Homo sapiens)”: in assay [2], the “Activation by Analyte: IL-10” value is listed as “X” and the “Activation by Analyte: IP-10” value is reported as “X”. Besides, in assay [1] (setting [3]), the “Inhibition by Analyte: IL-1b” value is “X” and the “Inhibition by Analyte: TNF” value was “X”.

On to “SEQ ID NO: 5627: target protein of the Sequence Listing, secreted peptide (MSEVATLLFSQTALASLESVHPAGHKLWMRNLRQVTSP; listed as Homo sapiens)”, for which, in assay [1] (setting [3]), the “Inhibition by Analyte: IL-2” value was “X” and the “Inhibition by Analyte: TNF” value is given as “X”.

With “SEQ ID NO: 5730: target protein of the Sequence Listing, secreted peptide (MVSHRKDWRRVNLRFSSCLLLSICLDDKPSADELCFWTDHGRSQLTCPSLGVSQGHARSS; listed as Homo sapiens)”, the “Activation by Analyte: IP-10” value in assay [2] is “X”.

With “SEQ ID NO: 5843: target protein of the Sequence Listing, secreted peptide (MGGKSWLFFYSLVFCALLPLPRREDPFKLF; listed as Homo sapiens)”, the “Inhibition by Analyte: IL-1b” value in assay [1] (setting [3]) is given as “X”.

Consider “SEQ ID NO: 5848: target protein of the Sequence Listing, secreted peptide (MARPLSLAAAGAPDLLFTALCSLLIEAQPLRPFDLQVLGDPQPRARTP; listed as Homo sapiens)”, for which the “Activation by Analyte: IL-2” value in assay [2] is given as “X”.

For the molecule “SEQ ID NO: 5862: target protein of the Sequence Listing, secreted peptide (MESRTLLLLFSGAVALIQTWADYNYNQGRNDLIFTLQLWKRQ; listed as Homo sapiens)”, in assay [1] (setting [3]), the “Inhibition by Analyte: IL-1b” value was “X”.

With “SEQ ID NO: 6295: target protein of the Sequence Listing, secreted peptide (MWWKTPCWWTPSTTATSSSAEARSCGRLLKSMAG; listed as Homo sapiens)”, the “Activation by Analyte: IP-10” value in assay [2] is “X”.

On to “SEQ ID NO: 6518: target protein of the Sequence Listing, secreted peptide (MSFDHPEKNGPWPADPINLPSHG; listed as Homo sapiens)”, for which, in assay [1] (setting [3]), the “Inhibition by Analyte: IL-2” value was “X” and the “Inhibition by Analyte: TNF” value was “X”.

B1: SEQ ID NO: 3494: target protein of the Sequence Listing, secreted peptide (peptide, listed as Homo sapiens)
chain: MSYLPTNPPGSILTCWLGVSLGSHRSARGGSTIYGRLLPRRKDVWFSQAKDVPKYRGLLYLQS
As for B1, in assay [2], the “Activation by Analyte: IP-10” value is “X”.

B2: SEQ ID NO: 5537: target protein of the Sequence Listing, secreted peptide (peptide, listed as Homo sapiens)
chain: MQRLPAAFFRSFAAQGLGESVHINTPTSLSLRGRPFISSSGPGARARVTCAPCLHAARILCCFWRGLHR
Consider B2, for which the “Activation by Analyte: IP-10” value in assay [2] was “X”.

B3: SEQ ID NO: 6517: target protein of the Sequence Listing, secreted peptide (peptide, listed as Homo sapiens)
chain: VALSLLTSQGRQRRAGPSTAFAALPATVATFSAMTESESLRTSRHADTALARVRRGAKFRGQARTRYCARARSHRFTPPSGA
Turning to B3, the “Activation by Analyte: IP-10” value in assay [2] is listed as “X”.

B4: SEQ ID NO: 5931: target protein of the Sequence Listing, secreted peptide (peptide, listed as Homo sapiens)
chain: MSCGSRRGPSLASSLAWLQLQSGTRPFCSSSPPYFLSHGRRIPFSHPRKESALRATKEPRTHRTNTSLADLPSPAPAHL
For B4, in assay [2], the “Activation by Analyte: IL-1b” value is “X”.

B5: SEQ ID NO: 4566: target protein of the Sequence Listing, secreted peptide (peptide, listed as Homo sapiens)
chain: LRPRSAAFAPRYTRLVMRRSSRSFRLQCTGFPSSSAQSISAHLSNSMPSSLLTISRCPGMFAVRCPL
Take B5: in assay [2], the “Activation by Analyte: IP-10” value is listed as “X”.

B6: SEQ ID NO: 5631: target protein of the Sequence Listing, secreted peptide (peptide, listed as Homo sapiens)
chain: MMAQKSKFRVLFMSDPHGTAMPLTSAILESSRASLAAKQEDKCFTDIRNLKWKHFLEHTKQPP
Regarding B6, the “Activation by Analyte: IP-10” value in assay [2] is “X”.

B7: SEQ ID NO: 3169: target protein of the Sequence Listing, secreted peptide (peptide, listed as Homo sapiens)
chain: MCHKGWHGPGVPHHVAFTPCKARLRPATQCQAHSSPRRKMVQAGSIPLAAASGRLCLTHAGWWRGAS
As for B7, the “Activation by Analyte: IP-10” value in assay [2] is reported as “X”.
